Reference: EP0537070A1, “Compositions containing compound TMK688 and its analogs” (TERUMO KABUSHIKI KAISHA, priority 1991, dated 1993)

Test: Solubility in solvents (qualitative)
Assay type: physicochemical

In the case of `CCOC(=O)Oc1ccc(/C=C/C=C/C(=O)NCCN2CCC(OC(c3ccccc3)c3ccccc3)CC2)cc1OC` [TMK 688], the solubility (in acetone) is reported as “can easily be dissolved”, the solubility (in acetonitrile) is reported as “can be well dissolved” and the solubility (in dichloroethane) is reported as “can easily be dissolved”. For the same molecule, the solubility (in ethanol) was “cannot be dissolved well” and the solubility (in water) was “can hardly be dissolved”.
